Test [1] deals with Recombinant human soluble BACE1 catalytic domain (Homo sapiens (Human), UniProt P56817). The test can be described thus: BACE1 HTRF FRET Assay. It counts as biochemical. The following applies: Ki calculated from IC50 using the Cheng-Prusoff equation; QSY7-APPswe-Eu substrate, pH 5.0; read-out: BACE-1 Ki. The source says: Reagents: Na^+-Acetate pH 5.0; 1% Brij-35; Glycerol; Dimethyl Sulfoxide (DMSO); Recombinant human soluble BACE1 catalytic domain (>95% pure); APP Swedish mutant peptide substrate (QSY7-APP^swe-Eu): QSY7-EISEVNLDAEFC-Europium-amide.
Chain of Recombinant human soluble BACE1 catalytic domain (P56817 75-416): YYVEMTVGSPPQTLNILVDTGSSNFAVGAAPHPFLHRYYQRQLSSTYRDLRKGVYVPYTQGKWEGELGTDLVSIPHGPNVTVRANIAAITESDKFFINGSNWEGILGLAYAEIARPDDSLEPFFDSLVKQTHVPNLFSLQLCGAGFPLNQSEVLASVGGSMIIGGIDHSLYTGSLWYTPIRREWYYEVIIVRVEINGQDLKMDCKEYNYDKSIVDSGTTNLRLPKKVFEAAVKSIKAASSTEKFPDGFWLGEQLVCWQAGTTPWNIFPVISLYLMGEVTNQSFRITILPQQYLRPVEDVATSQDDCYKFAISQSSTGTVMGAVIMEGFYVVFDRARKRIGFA
A homogeneous time-resolved FRET assay can be used to determine IC50 values for inhibitors of the soluble human BACE1 catalytic domain. This assay monitors the increase of 620 nm fluorescence that resulted from BACE1 cleavage of an APPswedish APP^swe mutant peptide FRET substrate (QSY7-EISEVNLDAEFC-Europium-amide). This substrate contains an N-terminal QSY7 moiety that serves as a quencher of the C-terminal Europium fluorophore (620 nm Em). In the absence of enzyme activity, 620 nm fluorescence is low in the assay and increased linearly over 3 hours in the presence of uninhibited BACE1 enzyme. Inhibition of BACE1 cleavage of the QSY7-APP^swe-Eu substrate by inhibitors is manifested as a suppression of 620 nm fluorescence.
Varying concentrations of inhibitors at 3× the final desired concentration in a volume of 10 ul are preincubated with purified human BACE1 catalytic domain (3 nM in 10 μl) for 30 minutes at 30° C. in reaction buffer containing 20 mM Na-Acetate pH 5.0, 10% glycerol, 0.1% Brij-35 and 7.5% DSMO. Reactions are initiated by addition of 10 μl of 600 nM QSY7-APP^swe-Eu substrate (200 nM final) to give a final reaction volume of 30 μl in a 384 well Nunc HTRF plate. The reactions are incubated at 30° C. for 1.5 hours. The 620 nm fluorescence is then read on a Rubystar HTRF plate reader (BMG Labtechnologies) using a 50 millisecond delay followed by a 400 millisecond acquisition time window. Inhibitor IC50 values are derived from non-linear regression analysis of concentration response curves. Ki values are then calculated from IC50 values using the Cheng-Prusoff equation using a previously determined […] of 8 μM for the QSY7-APP^swe-Eu substrate at BACE1.

For test [2], the target named is purified human autoBACE-2 (Homo sapiens (Human), UniProt Q9Y5Z0). The test can be described thus: BACE-2 Assay (BACE-HTRF assay). The test is classed as biochemical. Conditions: Ki calculated from IC50 using the Cheng-Prusoff equation; QSY7-EISEVNLDAEFC-Eu-amide substrate, pH 5.0. On the procedure: Inhibitor IC50s at purified human autoBACE-2 are determined in a time-resolved endpoint proteolysis assay that measures hydrolysis of the QSY7-[…]-Eu-amide FRET peptide substrate (BACE-HTRF assay). […] DMSO is present at 5% final concentration in the assay. Following laser excitation of sample wells at 320 nm, the fluorescence signal at 620 nm is collected for 400 ms following a 50 μs delay on a RUBYstar HTRF plate reader (BMG Labtechnologies). Raw RFU data is normalized to maximum (1.0 nM BACE/DMSO) and minimum (no enzyme/DMSO) RFU values. […] The Ki values are calculated from the IC50 using the Cheng-Prusoff equation.
Chain of purified human autoBACE-2 (Q9Y5Z0 63-473 limits assumed): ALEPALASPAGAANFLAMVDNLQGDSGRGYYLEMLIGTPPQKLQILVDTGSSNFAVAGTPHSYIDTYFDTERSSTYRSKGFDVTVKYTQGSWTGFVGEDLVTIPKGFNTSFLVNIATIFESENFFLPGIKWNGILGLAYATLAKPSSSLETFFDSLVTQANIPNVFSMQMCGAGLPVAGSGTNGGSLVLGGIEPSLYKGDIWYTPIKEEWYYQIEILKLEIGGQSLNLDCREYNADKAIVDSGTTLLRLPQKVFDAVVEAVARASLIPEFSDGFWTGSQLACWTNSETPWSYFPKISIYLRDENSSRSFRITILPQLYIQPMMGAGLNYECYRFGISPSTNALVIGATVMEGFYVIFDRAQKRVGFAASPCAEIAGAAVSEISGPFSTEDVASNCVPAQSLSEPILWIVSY

`COC[C@H]1C[C@H]2C(=O)N(C)C(=N)N[C@@]2(c2ccc(F)cc2F)CO1` [Example 1, (4aR,6R,8aS)-8a-(2,4-difluorophenyl)-2-imino-6-(methoxymethyl)-3-methylhexahydro-1H-pyrano[3,4-d]pyrimidin-4(4aH)-one]: the inhibitory constant (Ki) (usually the dissociation constant of the complex between target and ligand, obtained from inhibition or displacement) was 629 nM in test [1] and 237 nM in test [2].

`COC[C@H]1C[C@H]2C(=O)N(C)C(=N)N[C@@]2(c2cc(Oc3cc(C#N)ccn3)c(F)cc2F)CO1` [Example 2, 2-(2,4-difluoro-5-((4aR,6R,8aS)-2-imino-6-(methoxymethyl)-3-methyl-4-oxohexahydro-1H-pyrano[3,4-d]pyrimidin-8a(8H)-yl)phenoxy)isonicotinonitrile]: the Ki in test [1] is 3 nM; in test [2] it was 11 nM.

On to `COC[C@H]1C[C@H]2C(=O)N(C)C(=N)N[C@@]2(c2cc(Oc3ncccc3F)c(F)cc2F)CO1` [Example 3, (4aR,6R,8aS)-8a-(2,4-difluoro-5-((3-fluoropyridin-2-yl)oxy)phenyl)-2-imino-6-(methoxymethyl)-3-methylhexahydro-1H-pyrano[3,4-d]pyrimidin-4(4aH)-one], for which the Ki is 1 nM in test [1] and 3 nM in test [2].

In the case of `COC[C@H]1C[C@H]2C(=O)N(C)C(=N)N[C@@]2(c2cc(Oc3cc(OC)ccn3)c(F)cc2F)CO1` [Example 4, (4aR,6R,8aS)-8a-(2,4-difluoro-5-((4-methoxypyridin-2-yl)oxy)phenyl)-2-imino-6-(methoxymethyl)-3-methylhexahydro-1H-pyrano[3,4-d]pyrimidin-4(4aH)-one], the figures for the Ki in test [1] and in test [2] were 20 nM and 61 nM, respectively.

With `COC[C@H]1C[C@H]2C(=O)N(C)C(=N)N[C@@]2(c2cc(OCC3CC3)c(F)cc2F)CO1` [Example 5, (4aR,6R,8aS)-8a-(5-(cyclopropylmethoxy)-2,4-difluorophenyl)-2-imino-6-(methoxymethyl)-3-methylhexahydro-1H-pyrano[3,4-d]pyrimidin-4(4aH)-one], the results for the Ki in test [1] and in test [2] were 68 nM and 82 nM, respectively.

Regarding `CN1C(=N)N[C@@]2(c3ccc(F)cc3F)CO[C@@H](C3CC3)C[C@H]2C1=O` [Example 6, (4aR,6R,8aS)-6-cyclopropyl-8a-(2,4-difluorophenyl)-2-imino-3-methylhexahydro-1H-pyrano[3,4-d]pyrimidin-4(4aH)-one], the figures for the inhibitory constant (Ki) in test [1] and in test [2] were 99 nM and 265 nM, respectively.

For `CN1C(=N)N[C@@]2(c3ccc(F)cc3F)CO[C@@H](C(F)F)C[C@H]2C1=O` [Example 7, (4aR,6R,8aS)-6-(difluoromethyl)-8a-(2,4-difluorophenyl)-2-imino-3-methylhexahydro-1H-pyrano[3,4-d]pyrimidin-4(4aH)-one], the values for the Ki in test [1] and in test [2] were 312 nM and 254 nM, respectively.

Turning to `Cc1cc([C@H]2C[C@H]3C(=O)N(C)C(=N)N[C@@]3(c3cc(F)ccc3F)CO2)on1` [Example 8, (4aR,6R,8aS)-8a-(2,5-difluorophenyl)-2-imino-3-methyl-6-(3-methylisoxazol-5-yl)hexahydro-1H-pyrano[3,4-d]pyrimidin-4(4aH)-one], the inhibition constant Ki was 131 nM in test [1] and 34 nM in test [2].

For the molecule `C[C@H]1C[C@H]2C(=O)N(C)C(=N)N[C@@]2(c2cc(Oc3cc(C#N)ccn3)c(F)cc2F)CO1` [Example 9, 2-(2,4-difluoro-5-((4aR,6S,8aS)-2-imino-3,6-dimethyl-4-oxohexahydro-1H-pyrano[3,4-d]pyrimidin-8a(8H)-yl)phenoxy)isonicotinonitrile], the Ki was 2 nM in test [1] and 4 nM in test [2].

Turning to `C[C@H]1C[C@H]2C(=O)N(C)C(=N)N[C@@]2(c2cc(Oc3ncccc3F)c(F)cc2F)CO1` [Example 10, (4aR,6S,8aS)-8a-(2,4-difluoro-5-((3-fluoropyridin-2-yl)oxy)phenyl)-2-imino-3,6-dimethylhexahydro-1H-pyrano[3,4-d]pyrimidin-4(4aH)-one], the inhibitory constant (Ki) in test [1] was 4 nM; in test [2] it was 2 nM.

As to `C[C@H]1C[C@H]2C(=O)N(C)C(=N)N[C@@]2(c2ccc(F)cc2F)CO1` [Example 11, (4aR,65,8aS)-8a-(2,4-difluorophenyl)-2-imino-3,6-dimethylhexahydro-1H-pyrano[3,4-d]pyrimidin-4(4aH)-one], the results for the inhibitory constant (Ki) in test [1] and in test [2] were 110 nM and 105 nM, respectively.

Turning to `CN1C(=N)N[C@@]2(c3cc(Oc4cc(-n5cccn5)ncn4)ccc3F)CO[C@@H](C3CC3)C[C@H]2C1=O` [Example 13, (4aR,6R,8aS)-8a-(5-((6-(1H-pyrazol-1-yl)pyrimidin-4-yl)oxy)-2-fluorophenyl)-6-cyclopropyl-2-imino-3-methylhexahydro-1H-pyrano[3,4-d]pyrimidin-4(4aH)-one], the Ki was 52 nM in test [1] and 23 nM in test [2].

As for `CN1C(=N)N[C@@]2(c3cc(Oc4cc(C#N)ccn4)ccc3F)CO[C@@H](C3CC3)C[C@H]2C1=O` [Example 14, 2-(3-((4aR,6R,8aS)-6-cyclopropyl-2-imino-3-methyl-4-oxohexahydro-1H-pyrano[3,4-d]pyrimidin-8a(8H)-yl)-4-fluorophenoxy)isonicotinonitrile], the Ki in test [1] was 2 nM; in test [2], 13 nM.

As to `CN1C(=N)N[C@@]2(c3cc(Oc4ncccc4F)ccc3F)CO[C@@H](C3CC3)C[C@H]2C1=O` [Example 15, (4aR,6R,8aS)-6-cyclopropyl-8a-(2-fluoro-5-((3-fluoropyridin-2-yl)oxy)phenyl)-2-imino-3-methylhexahydro-1H-pyrano[3,4-d]pyrimidin-4(4aH)-one], the Ki in test [1] was 2 nM; in test [2] it was 8 nM.

Take `CN1C(=N)N[C@@]2(c3cc(Oc4ccnc(-n5cncn5)c4)ccc3F)CO[C@@H](C3CC3)C[C@H]2C1=O` [Example 16, (4aR,6R,8aS)-8a-(5-((2-(1H-1,2,4-triazol-1-yl)pyridin-4-yl)oxy)-2-fluorophenyl)-6-cyclopropyl-2-imino-3-methylhexahydro-1H-pyrano[3,4-d]pyrimidin-4(4aH)-one]: the results for the Ki in test [1] and in test [2] were 43 nM and 42 nM, respectively.

In the case of `Cc1cncc(Oc2ccc(F)c([C@]34CO[C@@H](C5CC5)C[C@H]3C(=O)N(C)C(=N)N4)c2)n1` [Example 17, (4aR,6R,8aS)-6-cyclopropyl-8a-(2-fluoro-5-((6-methylpyrazin-2-yl)oxy)phenyl)-2-imino-3-methylhexahydro-1H-pyrano[3,4-d]pyrimidin-4(4aH)-one], the Ki in test [1] is 12 nM; in test [2], 102 nM.

With `CN1C(=N)N[C@@]2(c3cc(Oc4ncc(F)cc4F)ccc3F)CO[C@@H](C3CC3)C[C@H]2C1=O` [Example 18, (4aR,6R,8aS)-6-cyclopropyl-8a-(5-((3,5-difluoropyridin-2-yl)oxy)-2-fluorophenyl)-2-imino-3-methylhexahydro-1H-pyrano[3,4-d]pyrimidin-4(4aH)-one], the Ki in test [1] is 11 nM; in test [2], 109 nM.

As for `C[C@H]1C[C@H]2C(=O)N(C)C(=N)N[C@@]2(c2cc(Oc3ncccc3F)ccc2F)CO1` [Example 19, (4aR,6S,8aS)-8a-(2-fluoro-5-((3-fluoropyridin-2-yl)oxy)phenyl)-2-imino-3,6-dimethylhexahydro-1H-pyrano[3,4-d]pyrimidin-4(4aH)-one], the Ki in test [1] is 7 nM; in test [2], 5 nM.

For `CN1C(=N)N[C@@]2(c3cc(Oc4ccnc(C(F)F)c4)ccc3F)CO[C@@H](C3CC3)C[C@H]2C1=O` [Example 20], the Ki in test [1] was 60 nM; in test [2], 228 nM.

Take `C[C@H]1C[C@H]2C(=O)N(C)C(=N)N[C@@]2(c2cc(Oc3cc(C#N)ccn3)ccc2F)CO1` [Example 21, 2-(4-fluoro-3-((4aR,6S,8aS)-2-imino-3,6-dimethyl-4-oxohexahydro-1H-pyrano[3,4-d]pyrimidin-8a(8H)-yl)phenoxy)isonicotinonitrile]: the inhibition constant (Ki) in test [1] and in test [2] was 6 nM in each case.

Take `Cc1nccc(Oc2ccc(F)c([C@]34CO[C@@H](C5CC5)C[C@H]3C(=O)N(C)C(=N)N4)c2)n1` [Example 22, (4aR,6R,8aS)-6-cyclopropyl-8a-(2-fluoro-5-((2-methylpyrimidin-4-yl)oxy)phenyl)-2-imino-3-methylhexahydro-1H-pyrano[3,4-d]pyrimidin-4(4aH)-one]: the Ki was 57 nM in test [1] and 182 nM in test [2].

Values taken from US10047098B2, “C5-C6-oxacyclic fused iminopyrimidinone compounds as bace inhibitors, compositions, and their use” (Merck Sharp & Dohme Corp., priority 2014, dated 2018).
